Earlier results on three substances are cited in patent US10016363B2, “Pre-spray emulsions and powders containing non-polar compounds” (VIRUN, INC., priority 2014, dated 2018).

For the data set the following is noted: reported HLB value of surfactant.
For sucrose distearate, the H.L.B. is on record as 3.
For sucrose dipalmitate, the H.L.B. is 7.4.
Consider sucrose monopalmitate, for which the H.L.B. is recorded as > 10.
